Substitutions are numbered along the chain they refer to.
Legend:
Assay in all cases: whole-cell patch clamp, peak current dose-response
Type in all cases: cell-based
rat P2X4R [1] = biological target: T1, rat P2X4R (Rattus norvegicus, UniProt P51577, C270T)
T1 sequence (P51577 1-388 C270T): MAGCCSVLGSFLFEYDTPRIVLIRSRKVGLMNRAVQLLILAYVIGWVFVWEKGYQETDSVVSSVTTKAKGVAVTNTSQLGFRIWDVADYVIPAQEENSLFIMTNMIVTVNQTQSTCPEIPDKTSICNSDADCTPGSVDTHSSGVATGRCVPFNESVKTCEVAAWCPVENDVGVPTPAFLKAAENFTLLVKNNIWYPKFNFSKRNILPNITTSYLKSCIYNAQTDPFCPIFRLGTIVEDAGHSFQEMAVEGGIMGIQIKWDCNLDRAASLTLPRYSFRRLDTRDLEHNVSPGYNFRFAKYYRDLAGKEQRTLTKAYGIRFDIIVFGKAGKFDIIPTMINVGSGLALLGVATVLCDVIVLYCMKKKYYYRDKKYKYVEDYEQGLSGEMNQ

rat P2X4R [2] = biological target: T2, rat P2X4R (Rattus norvegicus, UniProt P51577, C261T/C270T)
T2 sequence (P51577 1-388 C261T/C270T): T1 sequence (P51577 1-388 C270T) with C261T

rat P2X4R [3] = biological target: T3, rat P2X4R (Rattus norvegicus, UniProt P51577, C126A)
T3 sequence (P51577 1-388 C126A): T1 sequence (P51577 1-388 C270T) with C126A, T270C

rat P2X4R [4] = biological target: T4, rat P2X4R (Rattus norvegicus, UniProt P51577, C116A)
T4 sequence (P51577 1-388 C116A): T1 sequence (P51577 1-388 C270T) with C116A, T270C

rat P2X4R [5] = biological target: T5, rat P2X4R (Rattus norvegicus, UniProt P51577, C132T/C159T)
T5 sequence (P51577 1-388 C132T/C159T): T1 sequence (P51577 1-388 C270T) with C132T, C159T, T270C

rat P2X4R [6] = biological target: T6, rat P2X4R (Rattus norvegicus, UniProt P51577, C217T)
T6 sequence (P51577 1-388 C217T): T1 sequence (P51577 1-388 C270T) with C217T, T270C

rat P2X4R [7] = biological target: T7, rat P2X4R (Rattus norvegicus, UniProt P51577)
T7 sequence (P51577 1-388): T1 sequence (P51577 1-388 C270T) with T270C

In the case of Nc1ncnc2c1ncn2[C@@H]1O[C@H](COP(=O)(O)OP(=O)(O)OP(=O)(O)O)[C@@H](O)[C@H]1O [ATP], the EC50 (rat P2X4R [1]) is reported as 3.4 ± 1.8 µM, the EC50 (rat P2X4R [2]) is reported as 1.7 ± 0.8 µM and the EC50 (rat P2X4R [3]) is reported as 24 ± 5.6 µM. It also gave an EC50 (rat P2X4R [4]) of 27 ± 6.5 µM, an EC50 (rat P2X4R [5]) of 5.3 ± 0.8 µM and an EC50 (rat P2X4R [6]) of 7.2 ± 2.9 µM. For the same compound, the EC50 (rat P2X4R [7]) was 4.6 ± 0.5 µM.

From paper PMC3170524 (Physiological research / Academia Scientiarum Bohemoslovaca, 2010)
